This series is described as follows: Aqueous solubility. The format is physicochemical. The settings on record: aqueous environments.

Broadly, the solubility is the dissolved amount per volume that the medium holds. Low values mean little dissolved substance, high ones much dissolved substance. Consider `CCOC(=O)N1c2ccc(C(F)(F)F)cc2[C@@H](N(Cc2cc(C(F)(F)F)cc(C(F)(F)F)c2)C(=O)OC)C[C@H]1CC` [torceptrapib, [2R,4S]-4-[(3,5-bis-trifluoromethyl-benzyl)-methoxycarbonyl-amino]-2-ethyl-6-trifluoromethyl-3,4-dihydro-2H-quinoline-1-carboxylic acid ethyl ester], for which the solubility was below 0.04 µg/mL.
